Measured values: US9006170B2, “Compositions for elastogenesis and connective tissue treatment” (Human Matrix Sciences, LLC, priority 2004, dated 2015)
Read-outs that look alike come from different tables or passages of the source.

Legend:
[1] = test system: normal human skin fibroblasts
Experimental: Assessment of Cell Proliferation. Normal human skin fibroblasts were suspended in DMEM containing 10% FBS and plated in 35 mm culture dishes (100,000 cells/dish) in quadruplicates. […] These cultures were then washed in PBS and treated with cold 5% trichloroacetic acid twice for 10 minutes at 4° C. For 30 minutes, 0.5 ml of 0.3 N NaOH was added to all dishes, and 200 μl aliquots of each culture were mixed with scintillation fluid and counted.

[2] = test system: normal human skin fibroblasts; remark: listed apart in the source
Experimental: Since the net production of elastic fibers depend on the coordinated expression of multiple factors, the expression of three major factors facilitating elasogenesis by immunoflourecent microscopy after exposure of normal human skin fibroblasts to low (20 μM) and high (200 μM) iron concentrations was tested.

elastin mRNA [3] = conditions: 24 hours
Experimental: (§1) The intensity of elastin message signal detected by Northern blotting was assessed by densitometry after normalization to GAPDH message levels and the corresponding values are shown in the bar graph in arbitrary units. Elastin mRNA levels assessed by TaqMan real time PCR analysis were normalized to the corresponding levels of GAPDH mRNA and expressed as a percentage of untreated control values.

elastin mRNA [4] = test system: elastin mRNA
Experimental: (§2) Quantitative TaqMan RT-PCR. […] In order to assess the effect of iron on elastin mRNA stability parallel quadruplicate cultures were grown to confluency in 100 mm dishes. […] The reverse transcriptase reaction was performed using 1.5 μg of total RNA, oligo(dT)'s and the SuperScript First-Strand synthesis system (Invitrogen Life Technologies) according to manufacturer's instructions.
(§3) Elastin mRNA levels was measured by real-time quantitative PCR method performed on the ABI PRISM 7700 Sequence Detection System (Applied Biosystems, Foster City, Calif.). For each treatment two distinct amplifications were carried out in parallel in order to amplify elastin cDNA and GAPDH cDNA. The amplification reactions were performed in 25 μl volumes containing 30 ng of cDNA per treatment in triplicate, 12.5 μl of 2× TaqMan Universal PCR Master Mix (Applied Biosystems), and 1.25 μl of 20× Assays-on-Demand Gene Expression probe for elastin (Applied Biosystems) or TaqMan GAPDH probe (Applied Biosystems). Elastin mRNA levels from each treatment was normalized to the corresponding amount of GAPDH mRNA levels. Water controls and samples without PCR mixtures were set up to eliminate the possibility of significant DNA contamination. Final results were expressed as the mean of two independent experiments.
as §1

elastin mRNA [5] = conditions: 60 μM DRB
Experimental: as §2, §3
Since steady-state mRNA levels reflect the balance between transcription efficiency and message decay, we further studied whether fluctuations in iron concentration may affect elastin mRNA stability. […] At indicated time points total RNA was extracted and subjected to quantitative TaqMan RT-PCR analysis. The results are expressed as the mean±SD from two separate experiments conducted in quadruplicate cultures.

human skin = conditions: 10 μM MnSO4 or 20 μM FAC, 7 days; for elastic fibers (Movat's Pentachrome, ×400): person
Source text: Materials and Methods. Organ cultures of explants were derived from surgical biopsies of human skin. […] All organ cultures were fixed in 1% buffered formalin and their transversal histological sections were stained with Movat pentachrome method to visualize major components of extracellular matrix, including elastic fibers.

[6] = test system: normal human skin fibroblasts; conditions: for elastin deposition (immunostaining): 3 days
serine proteinases = conditions: 2-200 μM iron
[7] = test system: normal human skin fibroblasts; remark: listed apart in the source
Experimental: Normal human skin fibroblasts were grown to confluency in 35 mm culture dishes (100,000 cells/dish) in quadruplicates. Then, 2 μCi of [^3H]-valine/ml of fresh media was added to each dish, along with or without 2, 20, 100, 200 μM of FAC. […] The cells were extensively washed with PBS and the soluble proteins present in the intracellular compartments were extracted overnight at 4° C. with 0.1 M acetic acid in the presence of proteinase inhibitors. After centrifugation the supernatants were pre-cleaned by 30 minutes incubation with 50 p. […] The protein A-containing beads were sedimented by centrifugation; washed with immunoprecipitation buffer, mixed with scintillation fluid and counted. […] The resulting pellets containing the insoluble elastin were then solubilized by boiling in 200 μl of 5.7 N HCl for 1 hour, and the aliquots were mixed in scintillation fluid and counted. […] Final results reflecting amounts of metabolically labeled insoluble elastin in individual cultures were normalized per their DNA content and expressed as CPM/1 DNA. […] The conditioned media was then removed and the cell layers were washed and incorporation of [^3H]-valine into the insoluble elastin was assessed as described above.

[8] = test system: normal human skin fibroblasts; conditions: 3 hours
Experimental: Assays of Intracellular ROS levels. […] This probe passively diffuses into the cell interior and only upon oxidation it releases a fluorescent product that can be visualized under fluorescent microscope or captured by flow cytophotometry, when it is excited at 480 nm. To measure intracellular ROS production normal human skin fibroblasts were plated on glass coverslips in 35 mm dishes (50,000 cells/dish) and grown to confluency. The cells were then washed with PBS and incubated with or without 10 μM of CM-H2DCFDA for 30 minutes in fresh media. The cells were then washed again in PBS and incubated with new media in the presence or absence of FAC (2-400 μM) for 3 additional hours. The cells were then washed twice with PBS before being mounted to the glass slides and the images were captured under a fluorescent microscope under identical parameters of contrast and brightness.
In addition, the quantification of this reaction was performed by flow cytometry (λ excitation 480 nm; λ emission 520 nm). Quadruplicate cultures of fibroblasts were preincubated with CM-H2DCFDA and maintained in the presence or absence of FAC as described above. […] They were then collected by centrifugation (4° C., 1000 RPM for 3 minutes), washed in cold PBS and fixed with 4% formaldehyde for 10 minutes in the dark and analyzed by flow cytometry (FACSCalibur, Beckton Dickinson).

[9] = test system: normal human skin fibroblasts; assay: Quantitative assay of insoluble elastin ([3H]-valine metabolic labeling) in fibroblast cultures; type: cell-based; conditions: for reversal of the inhibitory effect of 200 μM iron treatment on elastin deposition: antioxidant applied with 200 μM of iron
elastin mRNA [10] = assay: One-step RT-PCR of elastin and β-actin mRNA
Experimental: Total RNA was extracted using the RNeasy Mini Kit, according to manufacturers instructions, and 1 μM of total RNA was added to each one step RT-PCR (Qiagen OneStep RT-PCR Kit) and reactions were set up according to manufacturers instructions in a total volume of 25 μl. The reverse transcription step was performed for elastin and β-actin reactions at 50 ° C. for 30 minutes followed by 15 minutes at 95 ° C.
5 μl samples of the elastin and β-actin PCR products from each reaction were ran on a 2% agarose gel and post-stained with ethidium bromide. The amount of elastin mRNA was standardized relative to the amount of β-actin mRNA.

elastin mRNA [11] = assay: Northern blot analysis of elastin mRNA levels in human aortic smooth muscle cells; type: cell-based
Experimental: (§4) Smooth muscle cells were isolated in the following manner porcine thoracic aortas and coronary arteries were dissected from young pigs obtained from local slaughterhouse. Passage two of human aortic smooth muscle cells from a normal subject was purchased from Clonetics Inc. (San Diego, Calif.). Arterial tissues were diced and explanted in a-MEM (modified Eagle's medium) supplemented with 10% FBS, 25 mM HEPES, L-glutamine, and […]. Tissue samples were diced and cells isolated by collagenase and elastase digestion as previously described.
(§5) Porcine thoracic aortas and coronary arteries were dissected from young pigs obtained from local slaughterhouse. Passage two of human aortic smooth muscle cells from a normal subject was purchased from Clonetics Inc. (San Diego, Calif.). Arterial tissues were diced and explanted in a-MEM (modified Eagle's medium) supplemented with 10% FBS, 25 mM HEPES, L-glutamine, and […]. Tissue samples were diced and cells isolated by collagenase and elastase digestion as previously described. Cells were maintained in a-MEM supplemented with 5% FBS and were routinely passaged by trypsinization. All the experiments were performed using SMC at passage 2-5. […] Aortic and coronary artery SMC's were plated at the initial density 50,000 dish, either directly on plastic or on coverslips, and maintained for 1-2 days until confluency. Cultures were then divided into experimental groups and maintained in the presence and absence of experimental reagents for 7 days. Fresh media were added at days 3 and 5.

[12] = test system: human dermal fibroblast cultures; assay: Immunohistochemical analysis of elastin synthesis in human dermal fibroblast cultures; type: cell-based; conditions: for synthesis of elastin (elastic fibers detected by immunocytochemistry): all concentrations 0.5 μM-2.0 μM, fibroblasts from various aged subjects; for deposition of extracellular matrix components, elastin and collagen type I: human dermal fibroblast cultures
Source text: Refer to FIG. 1, which illustrates both the elastic fibers detected by immunocytochemistry and the morphometric analysis of elastic fibers. MnCl2 and Mn-PCA were introduced into the fibroblasts derived from the various aged subjects over various concentrations.

human dermal fibroblasts = assay: Cellular proliferation of human dermal fibroblasts (total DNA content and [3H]-thymidine incorporation); type: cell-based; conditions: person
Source text: Manganese compositions induce cellular proliferation.

[13] = test system: human aortic smooth muscle cells; assay: Metabolic labeling of newly synthesized insoluble elastin by human aortic smooth muscle cells; type: cell-based
Experimental: as §4
as §5, with “Cultures were then divided into experimental groups and maintained in the presence and absence of experimental reagents for 7 days. Fresh media were added at days 3 and 5.” left out

[14] = test system: human dermal fibroblast cultures; conditions: immunohistochemistry, versus control
Experimental: In some experiments the serum free medium was also used.
The above prepared fibroblasts and smooth muscle cells were cultured in the presence or absence of (0.5-5 μM) of a manganese salt. Deposition of extracellular matrix components, elastin and collagen type I was assessed in 5-10 days old cultures by immunohistochemistry with a panel of specific antibodies.

[15] = equimolar (20 μM) ferric iron and DFO

ferric ammonium citrate [FAC]
[3H]-thymidine incorporation (proliferation rate) ([1]; high doses of iron (100 μM and 200 μM), 72 hours, listed as iron): proliferate with a significantly higher rate than untreated cells
cellular proliferation rate ([1]; low iron concentrations (lower than 25 μM)): did not cause any increase in cellular proliferation rate
immunodetectable levels of elastin binding protein (EBP) [2]: not changed
immunodetectable levels of fibrillin-1 [2]: not changed
immunodetectable levels of lysyl oxidase [2]: not changed
elastin mRNA levels (Northern blot, corrected for GAPDH) (elastin mRNA [3]; 200 μM of iron): returned back to control values
elastin mRNA levels (Northern blot, corrected for GAPDH) (elastin mRNA [3]; 2 and 20 μM iron): dose-dependent increase in elastin mRNA levels
increase in elastin mRNA levels (elastin mRNA [4]; 20 μM of iron, 24 hours): ~3 fold
tropoelastin mRNA (real-time RT-PCR) (elastin mRNA [4]; 200 μM of iron, 24 hours): significant reduction in tropoelastin mRNA
increase in the elastin mRNA level (elastin mRNA [4]; low iron concentrations (2-20 μM)): 2-3 fold
elastin mRNA half-life (elastin mRNA [5]; 20 μM iron): ~16 h
decrease in elastin mRNA level (elastin mRNA [5]; 200 μM iron): about 2.5 fold
elastin mRNA half-life (elastin mRNA [5]; 200 μM iron): ~6 h
agitation and migration of stratum basale-derived cells with fibroblastic phenotype (human skin): higher than control level of agitation and migration of stratum basale-derived cells with fibroblastic phenotype
infiltrating activated (differentiating) cells (×600) (human skin): seem to contain more such activated cells
elastic fibers (Movat's Pentachrome, ×400) (human skin): induced deposition of shorter elastic fibers primarily running parallel to the epidermis
elastin deposition (immunostaining) ([6]; 100 μM iron): did not induce better elastin deposition then treatment with 20
elastin deposition (immunostaining) ([6]; 200 μM of iron): dragged elastin deposition back to the control levels
production of elastic fibers (immunostaining) ([6]; 2 and 20 μM of iron, 3-day-long treatment): significantly increased the production of elastic fibers over control levels
elastolytic activity of serine proteinases (serine proteinases): did not stimulate elastolytic activity of serine proteinases
[3H]-valine-labeled tropoelastin synthesis ([7]; 2 and 20 μM iron, 72 hours): syntesize more [^3H]-valine-labeled tropoelastin than untreated counterparts
tropoelastin production ([7]; 100 and 200 μM iron versus 20 μM): lower tropoelastin production as compared to those treated with 20 μM
intracellular ROS production ([8]; 2-40 μM of iron): produced the same amount of ROS as untreated controls
intracellular ROS production ([8]; 100-400 μM iron): dose dependant increase in ROS production

catalase
reversal of the inhibitory effect of 200 μM iron treatment on elastin deposition [9]: not observed

CC(=O)N(O)CCCCCNC(=O)CCC(=O)N(O)CCCCCNC(=O)CCC(=O)N(O)CCCCCN [DFO, desferrioxamine]
iron induced increase in elastin deposition [9, 15]: abolished the iron induced increase
elastin mRNA levels (elastin mRNA [10]; 20 μM of DFO, compared to untreated control): significantly reduced
iron induced increase in elastin mRNA levels (elastin mRNA [10]; [15]): abolished the iron induced increase

O=S(=O)([O-])[O-].[Mn+2] [MnSO4, manganese sulfate]
transcription of the elastin gene (elastin mRNA levels) (elastin mRNA [11]): can induce transcription of the elastin gene
agitation and migration of stratum basale-derived cells with fibroblastic phenotype (human skin): higher than control level of agitation and migration of stratum basale-derived cells with fibroblastic phenotype
infiltrating activated (differentiating) cells (×600) (human skin): seem to contain more such activated cells
elastic fibers (Movat's Pentachrome, ×400) (human skin): stimulated production of long elastic fibers primarily running perpendicular to the epidermis

manganese salt of L-Pyrrolidone Carboxylic Acid [Mn-PCA]
synthesis of elastin (elastic fibers detected by immunocytochemistry) [12]: induce synthesis of elastin
deposition of extracellular matrix components, elastin and collagen type I [12]: induced
dermal fibroblast proliferation (human dermal fibroblasts): stimulate dermal fibroblast proliferation
more elastin transcription over the control (elastin mRNA [11]): ~66%
transcription of the elastin gene (elastin mRNA levels) (elastin mRNA [11]): can induce transcription of the elastin gene
increase in elastin synthesis over the control [13]: two-fold
deposition of collagen type I [14]: increased deposition in collagen type I

manganese chloride [MnCl2]
synthesis of elastin (elastic fibers detected by immunocytochemistry) [12]: induce synthesis of elastin
deposition of extracellular matrix components, elastin and collagen type I [12]: induced
transcription of the elastin gene (elastin mRNA levels) (elastin mRNA [11]): can induce transcription of the elastin gene

CC1(C)CC(O)CC(C)(C)N1[O] [Tempol]
reversal of the inhibitory effect of 200 μM iron treatment on elastin deposition [9]: not observed
